Measured values: ChEMBL document CHEMBL1201862, “PubChem BioAssay data set” (2004)
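Compound exposure: 48 hours, 5 concentrations, 96-well plates. Abbreviation: GI50, concentration required for 50% inhibition of growth.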 Calls of active or inactive are those of the source. No stated cut-off is given here; in the data, active = GI50 up to about 1.1 µM and inactive = higher.

Tests used:
Experiment in all cases: growth of human tumour cells (NCI), 48 h
[1] = test system: HOP-18
[2] = test system: A549
[3] = test system: XF498
[4] = test system: OVCAR-8
[5] = test system: RXF 393
[6] = test system: OVCAR-4
[7] = test system: DMS-114
[8] = test system: SF-268
[9] = test system: TK-10
[10] = test system: IGROV-1
[11] = test system: M14
[12] = test system: HT-29
[13] = test system: SK-MEL-2
[14] = test system: NCI-H23
[15] = test system: KM12
[16] = test system: OVCAR-5
[17] = test system: SF-539
[18] = test system: DMS-273
[19] = test system: SN12C
[20] = test system: NCI-H460
[21] = test system: CAKI-1
[22] = test system: LXFL 529
[23] = test system: HOP-92
[24] = test system: SK-OV-3
[25] = test system: HCT-15
[26] = test system: U-251
[27] = test system: SNB-75
[28] = test system: A498
[29] = test system: RXF 631
[30] = test system: HOP-62
[31] = test system: SK-MEL-28
[32] = test system: SW-620
[33] = test system: OVCAR-3
[34] = test system: MOLT-4
[35] = test system: UO-31
[36] = test system: EKVX
[37] = test system: UACC-62
[38] = test system: CCRF-CEM
[39] = test system: SNB-78
[40] = test system: NCI-H226
[41] = test system: HCT-116
[42] = test system: Malme-3M
[43] = test system: SNB-19
[44] = test system: M19-MEL
[45] = test system: LOX IMVI
[46] = test system: RPMI-8226
[47] = test system: ACHN
[48] = test system: SK-MEL-5
[49] = test system: DLD-1
[50] = test system: UACC-257
[51] = test system: NCI-H522
[52] = test system: KM-20L2
[53] = test system: COLO 205
[54] = test system: HCC 2998
[55] = test system: K562
[56] = test system: 786-0
[57] = test system: HL-60
[58] = test system: SR
[59] = test system: SF-295

With `COC(=O)c1ccccc1NC(=O)C(=O)Cc1nc2c3c(ccc2nc1O)C(=O)c1ccccc1C3=O` the GI50 [1] was > 100 µM (inactive), the GI50 [2] was 14 µM (inactive) and the GI50 [3] was 26.7 µM (inactive). The GI50 [4] was 24.3 µM (inactive), the GI50 [5] was 2.08 µM (inactive) and the GI50 [6] was 9.06 µM (inactive). The GI50 [7] was 7.62 µM (inactive), the GI50 [8] was 6.38 µM (inactive) and the GI50 [9] was 23.8 µM (inactive). For the same compound, the GI50 [10] was 15.7 µM (inactive), the GI50 [11] was 12.7 µM (inactive) and the GI50 [12] was 35.9 µM (inactive). The GI50 [13] was 15 µM (inactive), the GI50 [14] was 11.5 µM (inactive) and the GI50 [15] was 5.26 µM (inactive). For the same compound, the GI50 [16] was 79.4 µM (inactive), the GI50 [17] was 23.9 µM (inactive) and the GI50 [18] was 11.8 µM (inactive). The GI50 [19] was 29.6 µM (inactive), the GI50 [20] was 16.2 µM (inactive) and the GI50 [21] was 10.9 µM (inactive). The GI50 [22] was 22.6 µM (inactive), the GI50 [23] was 15.8 µM (inactive) and the GI50 [24] was 10.1 µM (inactive). For the same compound, the GI50 [25] was 21.9 µM, the GI50 [26] was 17.1 µM (inactive) and the GI50 [27] was 28.1 µM (inactive). The GI50 [28] was 35.1 µM (inactive), the GI50 [29] was 25.2 µM (inactive) and the GI50 [30] was 13.9 µM (inactive). For the same compound, the GI50 [31] was 15.7 µM (inactive), the GI50 [32] was 5.56 µM (inactive) and the GI50 [33] was 15 µM (inactive). For the same compound, the GI50 [34] was 10.3 µM (inactive), the GI50 [35] was 12.2 µM (inactive) and the GI50 [36] was 5.21 µM (inactive). The GI50 [37] was 4.48 µM (inactive), the GI50 [38] was 3.75 µM (inactive) and the GI50 [39] was 34 µM (inactive). For the same compound, the GI50 [40] was 4.48 µM (inactive), the GI50 [41] was 9.29 µM (inactive) and the GI50 [42] was 8.26 µM (inactive). The GI50 [43] was 12.6 µM (inactive), the GI50 [44] was 6.56 µM (inactive) and the GI50 [45] was 12.5 µM (inactive). The GI50 [46] was 8.2 µM (inactive), the GI50 [47] was 25 µM (inactive) and the GI50 [48] was 2.99 µM (inactive). The GI50 [49] was 6.35 µM (inactive), the GI50 [50] was 16.3 µM (inactive) and the GI50 [51] was 9.14 µM (inactive). The GI50 [52] was 32.7 µM (inactive), the GI50 [53] was 15.8 µM (inactive) and the GI50 [54] was 16.8 µM (inactive). The GI50 [55] was 23.9 µM (inactive) and the GI50 [56] was 16.2 µM (inactive).
For `CC1CC[C@]2(C(=O)O)CCC3(COC(=O)/C=C\c4ccc(O)cc4)C(=CCC4[C@@]5(C)CC[C@H](O)C(C)(C)C5CC[C@]43C)[C@@H]2[C@H]1C` (some centres not stated), the GI50 [1] was 27.5 µM (inactive), the GI50 [2] was 11.3 µM (inactive) and the GI50 [4] was 20.1 µM (inactive). The GI50 [5] was 17.5 µM (inactive), the GI50 [6] was 39.3 µM (inactive) and the GI50 [7] was 25.7 µM (inactive). The GI50 [8] was 14.7 µM (inactive), the GI50 [9] was 21.7 µM (inactive) and the GI50 [10] was 11.5 µM (inactive). For the same compound, the GI50 [11] was 17.6 µM (inactive), the GI50 [57] was 26.2 µM (inactive) and the GI50 [12] was 19.7 µM (inactive). The GI50 [13] was 20.8 µM (inactive), the GI50 [14] was 13.9 µM (inactive) and the GI50 [15] was 7.21 µM (inactive). The GI50 [16] was 19.5 µM (inactive), the GI50 [17] was 15.8 µM (inactive) and the GI50 [18] was 20.3 µM (inactive). The GI50 [19] was 20.8 µM (inactive), the GI50 [20] was 15.7 µM (inactive) and the GI50 [21] was 11.4 µM (inactive). For the same compound, the GI50 [22] was 22.7 µM (inactive), the GI50 [24] was 3.5 µM (inactive) and the GI50 [25] was 21 µM. The GI50 [26] was 9.79 µM (inactive), the GI50 [27] was 27.7 µM (inactive) and the GI50 [28] was 27 µM (inactive). The GI50 [58] was 20.6 µM (inactive), the GI50 [29] was 24.4 µM (inactive) and the GI50 [31] was 20 µM (inactive). For the same compound, the GI50 [32] was 27.9 µM (inactive), the GI50 [33] was 18.2 µM (inactive) and the GI50 [34] was 26.6 µM (inactive). The GI50 [35] was 17.7 µM (inactive), the GI50 [36] was 16.7 µM (inactive) and the GI50 [37] was 17.2 µM (inactive). The GI50 [38] was 20.4 µM (inactive), the GI50 [39] was > 100 µM (inactive) and the GI50 [40] was 18.5 µM (inactive). For the same compound, the GI50 [41] was 17.5 µM (inactive), the GI50 [42] was 34.8 µM (inactive) and the GI50 [43] was 12.3 µM (inactive). For the same compound, the GI50 [44] was 21.7 µM (inactive), the GI50 [59] was 17.1 µM (inactive) and the GI50 [45] was 14.1 µM (inactive). The GI50 [46] was 22.3 µM (inactive), the GI50 [47] was 10.4 µM (inactive) and the GI50 [48] was 18.2 µM (inactive). The GI50 [49] was 10.8 µM (inactive), the GI50 [50] was 31 µM (inactive) and the GI50 [51] was 17.5 µM (inactive). The GI50 [52] was 18.4 µM (inactive), the GI50 [53] was 23.3 µM (inactive) and the GI50 [54] was 17.2 µM (inactive). For the same compound, the GI50 [55] was 13 µM (inactive) and the GI50 [56] was 21.3 µM (inactive).
